Assay results from paper PMC6982718, “Comparative Study on Pharmacokinetics of Four Active Compounds in Rat Plasma after Oral Administration of Raw and Wine Processed Chuanxiong Rhizoma” (Molecules, 2019).

Legend:
[1] = Pharmacokinetic study in rat plasma after oral administration of RCR and WCR oral liquid medicine; type: in vivo, Sprague-Dawley rats; settings: n = 6, mean ± SD; for AUC(0-inf) / AUC(0-t) / Cmax / MRT / Tmax / half-life: male, Sprague-Dawley, rat, plasma, po, 24.01 g/kg
Experimental: RCR (300 g) and WCR (300 g) were weighed and soaked in water (6:1, v/w) for 20 min respectively, then refluxed for 30 min and extracted twice. Finally, the extracts of RCR and WCR were filtered, combined, and concentrated to 1.20 g/mL respectively. The concentrated extracts were stored in a refrigerator at 4 °C before use.
Male adult Sprague-Dawley rats (220–250 g) were obtained from the Laboratory Animal Center of Shanxi Medical University (Shanxi, China). The rats were fed in an air-conditioned animal center with a natural light-dark cycle for a week, the temperature was maintained at 22–26 °C and the relative humidity was maintained at 60 ± 10%. All procedures involving the animal were in accordance with the Regulations of Experimental Animal Administration issued by the State Committee of Science and Technology of People’s Republic of China. It is worth noting that all rats were fasted with free access to water for 12 h prior to the experiment.
The collected plasma samples (100 µL) spiked with IS (10 µL) and methanol (10 µL) were vortex-mixed for 5 min. Subsequently, methanol of 300 µL was added for protein precipitation. The mixtures were vortexed for 5 min and then centrifuged at 13,000 rpm for 20 min. Finally, the supernatant was transferred to another clean centrifuge tube and centrifuged again in the same manner. The supernatant of 5 µL was injected into the UHPLC-Q-Exactive-Orbitrap/MS system for analysis.
Twelve rats were randomly divided into two groups (n = 6 per group), an orally administered liquid medicine of RCR and WCR respectively at the same dose of 24.01 g/kg. The blood samples (0.3 mL) from the suborbital vein of each rat were collected in a 1.5 mL heparinized centrifuge tube before dosing and at 0.033, 0.083, 0.16, 0.25, 0.5, 1, 2, 4, 8, 11, 24, 48 h after administration. The blood samples were immediately centrifuged at 13,000 rpm for 10 min and the plasma separated out were transferred to clean centrifuge tubes and stored at −20 °C until analysis.
The pharmacokinetic parameters of the analytes were evaluated using Phoenix WinNonlin software (version 6.0, Pharsight Corporation, CA, USA). The mean plasma concentration-time curves were presented using Graphpad Prism (version 6.0, Graghpad Software, San Diego, CA, USA).

[2] = type: in vitro ADME, rat; settings: low QC (7.08/5.22/6.55/6.68 ng/mL), n = 6
Experimental: The quality control (QC) samples were prepared by the same procedure described above. Furthermore, low, medium, high concentrations of QC samples of each component were 7.08, 141.50, 1132 ng/mL for butylidenephthalide; 5.22, 104.40, 835.20 ng/mL for ligustilide; 6.55, 131, 1048 ng/mL for senkyunolide A and 6.68, 667.50, 10,680 ng/mL for ferulic acid, respectively.
The stability study of biological samples containing short-term, long-term, freeze-thaw and post-preparation stability could evaluate the influence of sample handling environment and sample storage environment on active component content. Six replicates of QC samples at three concentration levels were analyzed for all stability studies. Short-term stability was evaluated by keeping all QC samples at room temperature for 4 h before processing. Long-term stability was evaluated after all QC samples were stored at −20 °C for 60 days. Freeze-thaw stability of QC samples of each concentration was evaluated after three freeze (−20 °C)-thaw (room temperature) cycles. Post-preparation stability was to observe the stability of the extracted QC samples after waiting for 24 h in the autosampler at 4 °C. The concentration of each QC sample was calculated by the standard curve prepared freshly on the same day. The samples were considered stable when RSD of QC samples at three concentration levels was within ±15%.

SMILES | AUC(0-inf) ([1]; oral RCR 24.01 g/kg) [ng·h/mL] | AUC(0-t) ([1]; oral RCR 24.01 g/kg) [ng·h/mL] | Cmax ([1]; oral RCR 24.01 g/kg) [ng/mL] | MRT ([1]; oral RCR 24.01 g/kg) [h] | Tmax ([1]; oral RCR 24.01 g/kg) [min] | half-life ([1]; oral RCR 24.01 g/kg) [min] | AUC(0-inf) ([1]; oral WCR 24.01 g/kg) [ng·h/mL] | AUC(0-t) ([1]; oral WCR 24.01 g/kg) [ng·h/mL] | Cmax ([1]; oral WCR 24.01 g/kg) [ng/mL] | MRT ([1]; oral WCR 24.01 g/kg) [h] | Tmax ([1]; oral WCR 24.01 g/kg) [min] | half-life ([1]; oral WCR 24.01 g/kg) [min] | Cl ([1]; oral RCR 24.01 g/kg) [mL/h] | Vd ([1]; oral RCR 24.01 g/kg) [mL] | Cl ([1]; oral WCR 24.01 g/kg) [mL/h] | Vd ([1]; oral WCR 24.01 g/kg) | other results
CCC/C=C1\OC(=O)c2ccccc21 [Butylidenephthalide, butylidenephthalide] | 782 ± 252 | 743 ± 279 | 288 ± 370 | 14.1 ± 6.54 | 15 ± 8.4 | 685 ± 353 | 402 ± 77.1 | 384 ± 90.9 | 52.1 ± 16.6 | 13.9 ± 3.63 | 16.2 ± 8.4 | 661 ± 225 | 36.61 ± 16.33 | 633.78 ± 424.90 | 234.35 ± 44.10 | 3802.37 ± 1676.69 mL | Post-Preparative Stability RE ([2]; extracted rat plasma, 24 h in autosampler at 4 °C): 6.90%; Bench-Top Stability RE ([2]; rat plasma, room temperature 4 h): 1.88%; Freeze-Thaw Stability RE ([2]; rat plasma, three freeze (−20 °C)-thaw cycles): −10.99%; Long-Term Stability RE ([2]; rat plasma, −20 °C for 60 days): 4.03%
COc1cc(/C=C/C(=O)O)ccc1O [Ferulic Acid, ferulic acid] | 13400 | 13100 | 47700 | 3.21 ± 1.66 | 7.2 ± 5.4 |  | 4620 ± 1290 | 4460 ± 1240 | 9530 ± 6500 | 4.05 ± 1.07 | 3.6 ± 1.8 |  | 24.08 ± 14.39 | 283.95 ± 234.10 | 178.84 ± 54.46 | 1519.30 ± 1321.97 mL | t1/2 ([1]; oral RCR 24.01 g/kg): 8.57 ± 4.42 h; t1/2 ([1]; oral WCR 24.01 g/kg): 5.33 ± 2.97 h
CCC/C=C1\OC(=O)C2=C1CCC=C2 [Ligustilide, ligustilide] | 4110 ± 285 | 4080 ± 201 | 289 ± 8.1 | 13.5 ± 1.74 | 13.2 ± 3 | 510 ± 84.6 | 4040 ± 1480 | 3310 ± 579 | 192 ± 8.48 | 21.9 ± 11.2 | 18 ± 10.8 | 877 ± 454 | 128.76 ± 19.21 | 1579.29 ± 363.96 | 568.93 ± 184.86 | 10,580.62 ± 2206.75 mL | 
CCCCC1OC(=O)C2=C1CCC=C2 (stereo not shown) [Senkyunolide A, senkyunolide A] | 1840 ± 501 | 1640 ± 438 | 653 ± 581 | 18.8 ± 4.24 | 6.6 ± 5.4 | 806 ± 214 | 861 ± 267 | 804 ± 279 | 151 ± 84.3 | 9.86 ± 1.53 | 10.8 ± 4.2 | 379 ± 103 | 392.87 ± 142.41 | 7378.16 ± 2565.01 |  | 8275.68 ± 5216.70 mL | 
